Measured values published in US12285501B2, “Compound targeting norepinephrine transporter” (priority 2019, dated 2025).

Legend:
[1] = time frame of 50-60 min imaging; Raffel et al., J. Nucl. Med. 2017; cited from earlier work
NET [2] = molecular target: T1, NET (Homo sapiens, UniProt P23975); assay: Tracer cell uptake in SK-N-SH cells with and without NET inhibitor desipramine (DMI); format: cell-based; conditions: desipramine 10 μM, 60 min at 37° C.
T1 construct: SK-N-SH cells expressing NET; host or cells: SK-N-SH
Description: (§1) SK-N-SH cells expressing NET were cultivated according to the instructions from the supplier (Sigma-Aldrich Chemie GmbH, Munich, Germany). The cells were transferred to a 12 well plate and incubated in 1 mL EMEM while reaching 2×10^5 cells/well density the day for testing. The medium was removed, and the cells were washed with 1 mL EMEM. A solution of ^18F-AF78 (3.7 kBq) in EMEM (700 μL) was added to each well with or without inhibitors (NE, MHPG, cold AF78 each with a final concentration 100 nM, 1 μM, 10 μM and 100 μM, respectively; Desipramine 10 μM). The plate was incubated for 60 min at 37° C. The cells were washed with ice-cold PBS buffer (1 mL×2) in order to remove unbound tracer. NaOH solution (0.1 N, 500 μL) was added to each well followed by the collection of cell pellet and the measurement in γ-counter (FH412, Frieseke & Höpfner, Erlangen, Germany) using differential energy windows (±20%) for ^18F and ^131I.
After successful radiolabeling, ^18F-AF78 was also tested in SK-N-SH cells in order to check cell uptake. Antidepressant desipramine (DMI) was used as the inhibitor of NET. The addition of DMI blocks cell uptake of tracers specifically transported by NET.

[3] = Biodistribution study (SUV) in monkey; format: in vivo
Description: A further biodistribution study with ^18F-AF78 in monkey has been conducted. […] The liver uptake is decreasing and is lower than cardiac uptake 35 min after tracer administration.

[4] = Static PET images of cardiac uptake in several species; format: in vivo; conditions: healthy rats, rabbits, pigs and monkeys
NET [5] = molecular target: T2, NET (Rattus norvegicus, UniProt Q63380); assay: Ex vivo tissue counting study (heart/tissue distribution ratio) with and without NET blockade; format: in vivo; conditions: rats
T2 construct: tissue Japan SLC, Inc., Japan (animals); host or cells: heart (myocardium) of healthy male Wistar rats, in vivo
Description: (§2) Standard protocols and data analysis methods for non-invasive PET imaging of small animals have been established in the working group of the inventors (Rischpler C. et al., Eur J Nucl Med Mol Imaging. 2013; 40(7): 1077-83). Healthy male Wistar rats (Japan SLC, Inc., Japan) each weighing 200-250 g were used. The rats are anaesthetized with 2% isoflurane. 10-20 MBq of the tracer was administered via tail vein injection. Ten minutes after the tracer administration, the animals were immediately euthanized. Hearts, livers and blood were obtained for ex vivo analysis with autoradiography (Typhoon FLA 7000) and tissue counts with γ-counter (1480 WIZARD™ 3″). Following weight and decay correction of tissue counts, the heart to blood (H/B) and heart to liver (H/L) count ratio were calculated, respectively. For autoradiography, the rats were first injected via tail vein either with or without (control) NET blocker phenoxynezamine 50 mg/kg after anaesthesia. After 10 min, the tracer (10-20 MBq) was administered. The hearts were harvested 10 min later, frozen, and cut into 20 μm short axis slices using a cryostat (Cryotome FSE, Thermo Fisher Scientific). To obtain the distribution of the tracer, autoradiography plates (Fuji SR-type image plate, Fujifilm Corporation, Tokyo, Japan) were exposed to the short axis slices immediately for 18 h and thereafter imaged using a digital autoradiographic system (Typhoon FLA 7000).
The columns are the mean value of 2 rats. Data were determined 10 min post injection. Y-axis represents the heart/tissue distribution ratio. […] In comparison, according to Raffel, D. et al., J. Nucl. Med. 2017, 58 (Suppl 1): 96 MHPG and PHPG show tissue concentration ratios at a time frame of 50-60 min imaging as follows: MHPG with H/B 3.6 and H/L 2.3; PHPG with 5.4 and 1.1, respectively.

NET [6] = molecular target: T2, NET; assay: Ex vivo autoradiography of left ventricular short axis slices; format: in vivo
Description: as §2, with “To obtain the distribution of the tracer, autoradiography plates (Fuji SR-type image plate, Fujifilm Corporation, Tokyo, Japan) were exposed to the short axis slices immediately for 18 h and thereafter imaged using a digital autoradiographic system (Typhoon FLA 7000).” left out

NET [7] = assay: Dynamic PET time-activity curves in Cynomolgus monkey with and without DMI pretreatment; format: in vivo
Description: For control, Cynomolgus monkey (male, 5.3 kg) was maintained anaesthetized during the imaging study using 3.3% seboflurane. Shortly before receiving an intravenous injection of the tracer (44 MBq), a 120 min dynamic PET session was started. In addition, to investigate the inhibition of cardiac neuronal uptake-1, DMI (1 mg/kg, iv.) was injected to Cynomolgus monkey (female, 5.6 kg) 10 min before the tracer (18.2 MBq) injection and PET assessment started. PET was conducted using a PCA-2000A positron scanner (Toshiba Medical Systems Corporation, Otawara, Japan). Sinograms were collected with the following pattern: 10 sec×12, 30 sec×6, 300 sec×23. The tissue uptake was determined as arbitrary unit (A.U.), from which a time-activity curves of different organs were generated.
A tissue bio-distribution consistent with that observed in rat could be observed with clear long term and stable cardiac uptake during the total 120 min scan whereas uptake in adjacent liver and lungs was low. Representative time activity curves derived from ^18F-AF78 dynamic images in control and sympathetic nerve blocked monkey were generated from the scanning data. […] In the control, activity in the liver reached a peak a little while after the tracer injection, then decreased slowly to blood level after 60 min.

NET [8] = molecular target: T2, NET; assay: Cardiac PET imaging in healthy rats with and without NET blockade; format: in vivo
Description: Rats were maintained anaesthetized during the whole experiment by 2% isoflurane. All scans were obtained using a dedicated small-animal PET system (microPET FOCUS 120, SIEMENS, Germany). The PET imaging protocol was designed to assess the systemic and myocardial tracer distribution of ^18F-AF78. Shortly before the injection of 10-20 MBq of ^18F-AF78 via the tail vein, a dynamic PET scan was initiated. In order to evaluate the cardiac uptake mechanism of the tracer, rats were pretreated with phenoxybenzamine (50 mg/kg intravenously, Sigma-Aldrich, Tokyo, Japan). Ten minutes after the pretreatment, 10-20 MBq of ^18F-AF78 was administered via the tail vein. A 10 min dynamic PET session was started shortly before the tracer injection. PET image was acquired in list-mode format. The data were sorted into 3-dimensional sonograms, which were then rebind with a Fourier algorithm to reconstruct dynamic images using a 2-dimensional ordered-subset expectation maximization (OSEM) algorithm. All images were corrected for ^18F decay, random, and dead time; correction for attenuation was not performed (Higuchi JNM 2013). The obtained PET images were analyzed with the public domain tool AMIDE imaging software (A Medical Imaging Data Examiner, version 1.01). […]

NET [9] = assay: Kinetic study in monkeys' hearts (DMI blocking, DMI chase, tyramine chase); format: in vivo, monkey
Description: A kinetic study has been performed with ^18F-AF78 in monkeys' hearts. The results confirmed the specific uptake of ^18F-AF78 via NET and stable vesicular storage mechanism in the sympathetic nerve terminals. […] Furthermore, a continuous tyramine (TYR) chase was applied after tracer administration. Tyramine is known as agent causing a catecholamine release thus enhancing tracer washout. […] Decrease was statistically significant (p<0.005) compared to control group (FIG. 18, lower panel).

NET [10] = molecular target: T1, NET; assay: Competitive inhibition of 18F-AF78 uptake in SK-N-SH cells; format: cell-based; conditions: percentage of control AF78 uptake
Description: as §1
To further confirm the tracer's binding affinity, ^18F-labeled AF78 was used in competitive inhibition assay, to which different concentrations of NE, MHPG, and cold reference 2 (AF78) were added. […] Results are expressed as percentage of control AF78 uptake. […] (IC50 of MHPG vs. AF78, p value<0.05). […]

NET [11] = molecular target: T1, NET; assay: Competitive inhibition of 131I-MIBG uptake in SK-N-SH cells expressing NET; format: cell-based; conditions: for IC50: non-radioactive compounds, percent of control MIBG uptake
Description: as §1
[drawing 27] were synthesized. The compounds were tested in SK-N-SH cells expressing NET in order to evaluate their competitive binding affinity against ^131I-MIBG. […] Results are expressed as percent of control MIBG uptake. […] (IC50 of AF78 vs. MHPG p value<0.01)
NE and cold MIBG were used as references. As a result, cold reference 2 (AF78) could inhibit the cell uptake of ^131I-MIBG in a concentration-dependent manner. In contrast, cold reference 1 was not able to block the uptake of ^131I-MIBG even at the highest concentration tested. Inhibition was only 40% at 100 μM. […] The introduction of long alkyl chain at 3-position on the benzene ring seems not to be tolerated, whereas introduction at the 4-position seems to be well tolerated.

[12] = 10 min post injection, control, mean of 2 rats
[13] = PhB 50 mg/kg 10 min before tracer, 10 min post injection

T2 sequence (Q63380 1-617): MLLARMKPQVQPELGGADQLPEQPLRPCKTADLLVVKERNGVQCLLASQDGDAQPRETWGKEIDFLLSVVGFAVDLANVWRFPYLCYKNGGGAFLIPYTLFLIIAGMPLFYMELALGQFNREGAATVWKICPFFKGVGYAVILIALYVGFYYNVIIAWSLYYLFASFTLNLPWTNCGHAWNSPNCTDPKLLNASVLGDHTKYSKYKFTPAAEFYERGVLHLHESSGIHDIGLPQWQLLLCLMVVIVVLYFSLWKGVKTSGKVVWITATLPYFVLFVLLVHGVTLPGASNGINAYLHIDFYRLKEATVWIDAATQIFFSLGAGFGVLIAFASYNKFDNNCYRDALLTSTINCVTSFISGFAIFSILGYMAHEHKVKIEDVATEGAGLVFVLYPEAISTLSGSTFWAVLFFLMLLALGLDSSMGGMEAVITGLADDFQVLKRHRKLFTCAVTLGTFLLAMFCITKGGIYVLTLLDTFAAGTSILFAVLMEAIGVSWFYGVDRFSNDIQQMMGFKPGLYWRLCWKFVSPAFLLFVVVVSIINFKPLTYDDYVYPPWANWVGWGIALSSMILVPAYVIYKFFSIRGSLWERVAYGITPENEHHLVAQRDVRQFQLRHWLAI
T1 sequence (P23975 whole entry): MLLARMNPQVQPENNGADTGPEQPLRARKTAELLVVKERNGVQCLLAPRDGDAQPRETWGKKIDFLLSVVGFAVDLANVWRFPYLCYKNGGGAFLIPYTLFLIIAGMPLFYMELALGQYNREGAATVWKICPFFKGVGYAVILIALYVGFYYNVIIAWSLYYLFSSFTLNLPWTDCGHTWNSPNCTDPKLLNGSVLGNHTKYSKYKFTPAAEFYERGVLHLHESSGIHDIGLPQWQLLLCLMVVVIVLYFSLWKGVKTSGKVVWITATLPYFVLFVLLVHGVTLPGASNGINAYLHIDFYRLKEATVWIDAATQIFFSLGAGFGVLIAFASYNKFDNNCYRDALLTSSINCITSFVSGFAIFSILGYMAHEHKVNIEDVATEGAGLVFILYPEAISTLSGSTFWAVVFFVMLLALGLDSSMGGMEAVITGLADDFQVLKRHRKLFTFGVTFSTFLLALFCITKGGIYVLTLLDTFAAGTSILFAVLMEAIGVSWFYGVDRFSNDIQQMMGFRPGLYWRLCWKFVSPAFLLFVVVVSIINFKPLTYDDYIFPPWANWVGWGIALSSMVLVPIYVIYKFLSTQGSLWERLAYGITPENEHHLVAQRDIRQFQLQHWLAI

N=C(N)NCCc1ccc(O)c([18F])c1 [PHPG, ^18F-3-fluoro-4-hydroxyphenethylguanidine]
H/B tissue concentration ratio [1]: 5.4
H/L tissue concentration ratio [1]: 1.1

N=C(N)NCc1cccc([131I])c1 [^131I-MIBG, ^123/131I-meta-iodobenzylguanidine, reference compound]
Tracer uptake inhibited by the addition of DMI (NET [2]): 87%

NC(N)=NCCc1ccc(OCCC[18F])c(F)c1 [^18F-AF78]
Tracer uptake inhibited by the addition of DMI (NET [2]): 94%
Biodistribution (SUV) result [3]: stable cardiac uptake along with fast blood pool washout and relative fast liver uptake washout
Time after tracer administration at which liver uptake is lower than cardiac uptake [3]: 35 min
Cardiac uptake in static PET images across species [4]: works in all of these species
Heart-to-Blood (H/B) ratio (NET [5]; [12]): 12.54
Heart-to-Liver (H/L) ratio (NET [5]; [12]): 6.14
Decline in the H/B ratio by PhB (NET [5]; PhB 50 mg/kg): approximately 6 fold
Decline in the H/L ratio by PhB (NET [5]; PhB 50 mg/kg): ~5 fold
Heart-to-Blood (H/B) ratio after NET blockade (NET [5]; [13]): 2.41
Heart-to-Liver (H/L) ratio after NET blockade (NET [5]; [13]): 1.30
Tracer distribution in myocardium (autoradiography) (NET [6]; rat LVSA slices, control): homogeneous tracer uptake throughout the left ventricular walls
Tracer distribution after PhB pretreatment (autoradiography) (NET [6]; rat, PhB 50 mg/kg i.v. 10 min before tracer): could be inhibited by a pretreatment with phenoxybenzamine
Time after which liver activity decreased to blood level (NET [7]; control monkey): 60 min
Cardiac uptake over scan time (NET [7]; control monkey, 120 min dynamic PET): maintained activity throughout the entire 120 min scan time
Liver uptake after DMI pretreatment (NET [7]; monkey, DMI 1 mg/kg iv): not affected by pretreatment with DMI
Heart uptake after DMI pretreatment (NET [7]; monkey, DMI 1 mg/kg iv 10 min before tracer): markedly reduced the heart uptake level
Myocardial tracer uptake after NET blockade, static PET images (NET [8]; PhB 50 mg/kg iv 10 min before tracer): significantly decreased the myocardial tracer uptake
Myocardial tracer uptake, static PET images (NET [8]; no pretreatment): homogeneous and clear tracer uptake throughout the left ventricular wall
Cardiac tracer uptake with DMI chase vs control (NET [9]; DMI injected 10 min after tracer): no difference can be seen compared to control group
Cardiac tracer uptake with DMI blocking vs control (NET [9]; DMI injected 10 min before tracer): specifically blocked the tracer uptake with significant difference
Cardiac tracer uptake with tyramine chase vs control (NET [9]; continuous tyramine chase after tracer): decreased considerable

^18F-4-fluoro-3-hydroxyphenethylguanidine [MHPG]
H/B tissue concentration ratio [1]: 3.6
H/L tissue concentration ratio [1]: 2.3
IC50 (NET [10]): 850 ± 630 nM
IC50 (NET [11]): 6800 ± 730 nM

N=C(N)NCCc1ccc(F)c(OCCCF)c1 [cold reference 1]
inhibition at 100 µM (NET [11]; at 100 μM (highest concentration tested)): 40%

N=C(N)NCCc1ccc(OCCCF)c(F)c1 [AF78]
IC50 (NET [10]): 2680 ± 830 nM
IC50 (NET [11]): 2570 ± 1370 nM
